Experimental data as given in BigSolDB 2.1.

Clc1ccccc1C(c1ccccc1)(c1ccccc1)n1ccnc1
solubility (mole fraction)
Details	278.15 K	283.15 K	288.15 K	293.15 K	298.15 K	303.15 K	308.15 K	313.15 K	318.15 K	323.15 K
in 1,4-dioxane	–	–	0.0385	0.0441	0.05	0.0568	0.0643	0.0731	0.0813	0.091
in acetonitrile	0.00173	0.00212	0.00264	0.00316	0.00378	0.00453	0.00539	0.00636	0.00741	0.00886
in isopropanol	0.00782	0.00947	0.0114	0.0137	0.0164	0.0195	0.0228	0.0266	0.031	0.036
in n-propanol	0.0125	0.0151	0.0181	0.0215	0.0257	0.0301	0.0353	0.0413	0.0477	0.0554
in water	9.28e-09	1.22e-08	1.56e-08	1.98e-08	2.47e-08	3.11e-08	3.85e-08	4.78e-08	5.9e-08	7.07e-08
